The source of these data is patent US7704995B2 (Exelixis, Inc., priority 2003, dated 2010).

Structures are written as SMILES. Some results are limits rather than exact numbers.

The test addresses T1, Chk1 (Homo sapiens, UniProt O14757).
T1 construct: purchased Upstate Biotechnology
T1 sequence (O14757 1-476): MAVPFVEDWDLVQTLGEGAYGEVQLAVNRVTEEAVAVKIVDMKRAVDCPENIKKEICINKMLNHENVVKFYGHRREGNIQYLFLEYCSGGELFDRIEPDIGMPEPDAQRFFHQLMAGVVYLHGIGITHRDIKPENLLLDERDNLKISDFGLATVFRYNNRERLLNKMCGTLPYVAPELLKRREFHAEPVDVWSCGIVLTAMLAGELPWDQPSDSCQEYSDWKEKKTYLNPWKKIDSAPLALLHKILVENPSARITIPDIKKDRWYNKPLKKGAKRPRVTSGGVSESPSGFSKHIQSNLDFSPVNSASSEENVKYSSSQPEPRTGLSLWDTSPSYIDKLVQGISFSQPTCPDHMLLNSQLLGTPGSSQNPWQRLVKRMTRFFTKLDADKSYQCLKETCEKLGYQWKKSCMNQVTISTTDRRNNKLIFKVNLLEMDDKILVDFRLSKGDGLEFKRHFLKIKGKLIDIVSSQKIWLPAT
In words: Chk1 kinase assay: incorporation of γ-33P ATP into immobilized myelin basic protein. Type of test: biochemical. The note with it: Table 11; Chk1 only; read-out: Chk1 IC50. Summed up: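 MBP coated on plates (20 μg/ml) was phosphorylated by Chk1 (10 nM) or Chk2 (20 nM) with γ-33P ATP plus 10 μM (Chk1) or 30 μM (Chk2) unlabeled ATP, 1 h at room temperature, 1% DMSO. Bound radioactivity was counted by scintillation after washing; IC50 or Ki derived from fitted rate data.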
On to `CNC(=O)c1nc(-c2cccc(CNCc3ccc(-c4cccs4)cc3F)c2)cnc1N` [Example 450, 3-amino-6-{3-[({[2-fluoro-4-(2-thienyl)phenyl]methyl}amino)methyl]phenyl}-N-methylpyrazine-2-carboxamide], for which the concentration for half-maximal inhibition (IC50) is less than 50 nM.

Take `CNC(=O)c1nc(-c2cccc(CNCc3ccc(-c4ccco4)cc3F)c2)cnc1N` [Example 451, 3-amino-6-[3-({[(2-fluoro-4-furan-2-ylphenyl)methyl]amino}methyl)phenyl]-N-methylpyrazine-2-carboxamide]: the IC50 was less than 50 nM. In the case of `CNC(=O)c1nc(-c2cccc(CNc3ccc4ccccc4c3)c2)cnc1N` [Example 452, 3-amino-N-methyl-6-{3-[(naphthalen-2-ylamino)methyl]phenyl}pyrazine-2-carboxamide] it was 50 to 1000 nM. The figure for `CNC(=O)c1nc(-c2cccc(CN[C@H]3c4ccccc4C[C@H]3O)c2)cnc1N` [Example 453, 3-amino-6-[3-({[(1S,2R)-2-hydroxy-2,3-dihydro-1H-inden-1-yl]amino}methyl)phenyl]-N-methylpyrazine-2-carboxamide] is less than 50 nM; for `CNC(=O)c1nc(-c2cccc(CN[C@H]3CCc4ccccc4C3)c2)cnc1N` [Example 454, 3-amino-N-methyl-6-(3-{[(2S)-1,2,3,4-tetrahydronaphthalen-2-ylamino]methyl}phenyl)pyrazine-2-carboxamide] it is less than 50 nM; for `COC(=O)c1nc(-c2cccc(CNC3CCc4c(F)ccc(F)c43)c2)cnc1N` (stereo not shown) [Example 455, methyl 3-amino-6-(3-{[(4,7-difluoro-2,3-dihydro-1H-inden-1-yl)amino]methyl}phenyl)pyrazine-2-carboxylate] it is 50 to 1000 nM.

Turning to `CNC(=O)c1nc(-c2cccc(CNC3Cc4ccc(Br)cc4C3)c2)cnc1N` (stereo not shown) [Example 456, 3-amino-6-(3-{[(5-bromo-2,3-dihydro-1H-inden-2-yl)amino]methyl}phenyl)-N-methylpyrazine-2-carboxamide], the IC50 was 50 to 1000 nM.

Consider `CNC(=O)c1nc(-c2cccc(CNCc3cc(-c4cccs4)ccc3F)c2)cnc1N` [Example 457, 3-amino-6-{3-[({[2-fluoro-5-(2-thienyl)phenyl]methyl}amino)methyl]phenyl}-N-methylpyrazine-2-carboxamide], for which the 50% inhibitory concentration (IC50) is 50 to 1000 nM. In the case of `C=Cc1ccc(CNCc2cccc(-c3cnc(N)c(C(=O)NC)n3)c2)c(F)c1` [Example 458, 3-amino-6-[3-({[(4-ethenyl-2-fluorophenyl)methyl]amino}methyl)phenyl]-N-methylpyrazine-2-carboxamide] it was 50 to 1000 nM; in that of `CNC(=O)c1nc(-c2cccc(CNC3CC(C)c4c(F)ccc(F)c43)c2)cnc1N` (stereo not shown) [Example 459, 3-amino-6-(3-{[(4,7-difluoro-3-methyl-2,3-dihydro-1H-inden-1-yl)amino]methyl}phenyl)-N-methylpyrazine-2-carboxamide], 50 to 1000 nM. On to `CNC(=O)c1nc(-c2cccc(CN[C@H]3c4ccccc4C[C@H]3OC)c2)cnc1N` [Example 460, 3-amino-N-methyl-6-[3-({[(1S,2R)-2-(methyloxy)-2,3-dihydro-1H-inden-1-yl]amino}methyl)phenyl]pyrazine-2-carboxamide], for which the IC50 is 50 to 1000 nM. The figure for `CNC(=O)c1nc(-c2cccc(CNC3CCc4cc(Br)ccc43)c2)cnc1N` (stereo not shown) [Example 461, 3-amino-6-(3-{[(5-bromo-2,3-dihydro-1H-inden-1-yl)amino]methyl}phenyl)-N-methylpyrazine-2-carboxamide] is 50 to 1000 nM. The figure for `CNC(=O)c1nc(-c2cccc(CN[C@H]3CCc4cc(Br)ccc4C3)c2)cnc1N` [Example 462, 3-amino-6-[3-({[(2S)-6-bromo-1,2,3,4-tetrahydronaphthalen-2-yl]amino}methyl)phenyl]-N-methylpyrazine-2-carboxamide] is less than 50 nM; for `CNC(=O)c1nc(-c2cccc(CN[C@@H]3CCc4cc(Br)ccc4C3)c2)cnc1N` [Example 463, 3-amino-6-[3-({[(2R)-6-bromo-1,2,3,4-tetrahydronaphthalen-2-yl]amino}methyl)phenyl]-N-methylpyrazine-2-carboxamide] it is 50 to 1000 nM. In the case of `CNC(=O)c1nc(-c2cccc(CNC3CCc4cc(F)ccc43)c2)cnc1N` (stereo not shown) [Example 464, 3-amino-6-(3-{[(5-fluoro-2,3-dihydro-1H-inden-1-yl)amino]methyl}phenyl)-N-methylpyrazine-2-carboxamide] it was 50 to 1000 nM; in that of `CNC(=O)c1nc(-c2cccc(CN[C@H]3Cc4ccc(Br)cc4C3)c2)cnc1N` [Example 465, 3-amino-6-[3-({[(2S)-5-bromo-2,3-dihydro-1H-inden-2-yl]amino}methyl)phenyl]-N-methylpyrazine-2-carboxamide], less than 50 nM; in that of `CNC(=O)c1nc(-c2cccc(CNC3Cc4cccc(F)c4C3)c2)cnc1N` (stereo not shown) [Example 466, 3-amino-6-(3-{[(4-fluoro-2,3-dihydro-1H-inden-2-yl)amino]methyl}phenyl)-N-methylpyrazine-2-carboxamide], less than 50 nM.

Regarding `CNC(=O)c1nc(-c2cccc(CNC3Cc4c(F)cccc4C3O)c2)cnc1N` (stereo not shown) [Example 467, 3-amino-6-(3-{[(4-fluoro-1-hydroxy-2,3-dihydro-1H-inden-2-yl)amino]methyl}phenyl)-N-methylpyrazine-2-carboxamide], the 50% inhibitory concentration (IC50) is 50 to 1000 nM. In the case of `CNC(=O)c1nc(-c2cccc(CN[C@@H]3c4ccccc4C[C@@H]3OC)c2)cnc1N` [Example 468, 3-amino-N-methyl-6-[3-({[(1R,2S)-2-(methyloxy)-2,3-dihydro-1H-inden-1-yl]amino}methyl)phenyl]pyrazine-2-carboxamide] it was 50 to 1000 nM; in that of `CNC(=O)c1nc(-c2cccc(CNC3CCc4c(F)ccc(F)c43)c2)cnc1N` (stereo not shown) [Example 469, 3-amino-6-(3-{[(4,7-difluoro-2,3-dihydro-1H-inden-1-yl)amino]methyl}phenyl)-N-methylpyrazine-2-carboxamide], 50 to 1000 nM. In the case of `CNC(=O)c1nc(-c2cccc(CNC3CCc4c(F)cc(Br)cc43)c2)cnc1N` (stereo not shown) [Example 470, 3-amino-6-(3-{[(6-bromo-4-fluoro-2,3-dihydro-1H-inden-1-yl)amino]methyl}phenyl)-N-methylpyrazine-2-carboxamide] it was 50 to 1000 nM.

With `CNC(=O)c1nc(-c2cccc(CNC3CC(=O)c4ccccc43)c2)cnc1N` (stereo not shown) [Example 471, 3-amino-N-methyl-6-(3-{[(3-oxo-2,3-dihydro-1H-inden-1-yl)amino]methyl}phenyl)pyrazine-2-carboxamide], the IC50 lay within 50 to 1000 nM. On to `CNC(=O)c1nc(-c2cccc(CNC3CCc4cc(-c5ccco5)ccc43)c2)cnc1N` (stereo not shown) [Example 472, 3-amino-6-(3-{[(5-furan-2-yl-2,3-dihydro-1H-inden-1-yl)amino]methyl}phenyl)-N-methylpyrazine-2-carboxamide], for which the IC50 was less than 50 nM. In the case of `CNC(=O)c1nc(-c2cccc(CNC3CCc4c(F)cccc43)c2)cnc1N` (stereo not shown) [Example 473, 3-amino-6-(3-{[(4-fluoro-2,3-dihydro-1H-inden-1-yl)amino]methyl}phenyl)-N-methylpyrazine-2-carboxamide] it was 50 to 1000 nM; in that of `CNC(=O)c1nc(-c2cccc(CNC3CCc4c(F)cc(F)cc43)c2)cnc1N` (stereo not shown) [Example 474, 3-amino-6-(3-{[(4,6-difluoro-2,3-dihydro-1H-inden-1-yl)amino]methyl}phenyl)-N-methylpyrazine-2-carboxamide], 50 to 1000 nM; in that of `CNC(=O)c1nc(-c2cccc(CNC3CCc4ccc(F)cc43)c2)cnc1N` (stereo not shown) [Example 475, 3-amino-6-(3-{[(6-fluoro-2,3-dihydro-1H-inden-1-yl)amino]methyl}phenyl)-N-methylpyrazine-2-carboxamide], less than 50 nM. In the case of `CNC(=O)c1nc(-c2cccc(CNC3CCc4cc(F)c(F)cc43)c2)cnc1N` (stereo not shown) [Example 476, 3-amino-6-(3-{[(5,6-difluoro-2,3-dihydro-1H-inden-1-yl)amino]methyl}phenyl)-N-methylpyrazine-2-carboxamide] it was 50 to 1000 nM; in that of `CNC(=O)c1nc(-c2cccc(CNC3CCc4cc(Cl)ccc43)c2)cnc1N` (stereo not shown) [Example 477, 3-amino-6-(3-{[(5-chloro-2,3-dihydro-1H-inden-1-yl)amino]methyl}phenyl)-N-methylpyrazine-2-carboxamide], less than 50 nM. In the case of `CNC(=O)c1nc(-c2cccc(CNC3CCc4cc(-c5cccs5)ccc43)c2)cnc1N` (stereo not shown) [Example 478, 3-amino-N-methyl-6-[3-({[5-(2-thienyl)-2,3-dihydro-1H-inden-1-yl]amino}methyl)phenyl]pyrazine-2-carboxamide] it was less than 50 nM.

Regarding `CNC(=O)c1nc(-c2cccc(CNC3CCc4cc(F)cc(F)c43)c2)cnc1N` (stereo not shown) [Example 479, 3-amino-6-(3-{[(5,7-difluoro-2,3-dihydro-1H-inden-1-yl)amino]methyl}phenyl)-N-methylpyrazine-2-carboxamide], the IC50 is 50 to 1000 nM. In the case of `CNC(=O)c1nc(-c2cccc(CNC3CCc4cc(-c5ccoc5)ccc43)c2)cnc1N` (stereo not shown) [Example 480, 3-amino-6-(3-{[(5-furan-3-yl-2,3-dihydro-1H-inden-1-yl)amino]methyl}phenyl)-N-methylpyrazine-2-carboxamide] it was less than 50 nM.
